The structures appear in SMILES notation.

For the first assay, the target named is T1, P2Y1 receptor (Homo sapiens, UniProt P47900).
T1 construct: expressed in transfected cells
T1 sequence (P47900 whole entry): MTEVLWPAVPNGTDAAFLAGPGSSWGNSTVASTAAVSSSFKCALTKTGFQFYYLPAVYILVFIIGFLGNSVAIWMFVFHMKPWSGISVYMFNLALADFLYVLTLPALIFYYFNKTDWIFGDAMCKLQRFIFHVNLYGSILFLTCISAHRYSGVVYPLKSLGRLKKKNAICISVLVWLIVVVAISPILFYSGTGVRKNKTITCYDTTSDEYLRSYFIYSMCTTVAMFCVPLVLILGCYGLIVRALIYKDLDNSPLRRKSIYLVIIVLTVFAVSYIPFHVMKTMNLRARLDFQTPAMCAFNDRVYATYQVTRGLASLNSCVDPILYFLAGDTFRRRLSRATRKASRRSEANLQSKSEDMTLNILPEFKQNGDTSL
Kind of assay: P2Y1 IP1 accumulation HTRF assay, antagonism of agonist MRS2365 in stably transfected cells. The class given is cell-based. The conditions noted are these: racemic; 5nM MRS2365; values rounded to nearest whole number; N >= 4. A digest of the protocol:
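HTRF IP1 accumulation in stably P2Y1-overexpressing cells, plated the day before. Compounds pre-incubated 1 hour (10-point semi-log curve from 10µM, 0.1% DMSO), then 5nM MRS2365 added for 60 minutes, both at 37°C / 5% CO2. IP1 interpolated from standard curve; IC50 from N ≥ 4 runs.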
On the technique in general: TR-FRET usually uses a lanthanide donor and a delayed reading to cut background.
For the compound `O=C(Nc1ccc(F)cc1)Nc1cccnc1Oc1ccccc1C1(C(F)(F)F)CCO1` (racemic) [S53, 1-(4-fluorophenyl)-3-(2-(2-(2-(trifluoromethyl)oxetan-2-yl)phenoxy)pyridin-3-yl)urea], the IC50 (commonly the point on the concentration scale where inhibition reaches its midpoint) amounted to 522 nM. With `Cc1ccc(NC(=O)Nc2ccc(F)cc2)c(Oc2ccc(F)cc2C2(C(F)(F)F)CCO2)n1` (racemic) [S48, 1-(2-(4-fluoro-2-(2-(trifluoromethyl)oxetan-2-yl)phenoxy)-6-methylpyridin-3-yl)-3-(4-fluorophenyl)urea], the IC50 turned out to be 408 nM. The IC50 values of the last two compounds are within 1.5-fold of each other. On the same count and under the same terms, the same measure for `O=C(Nc1ccc(OC(F)(F)F)cc1F)Nc1cccnc1Oc1cc(F)ccc1C1(C(F)(F)F)CCO1` (racemic) [S12]: 87 nM; for `O=C(Nc1ccc(OC(F)(F)F)cc1)Nc1cccnc1Oc1ccccc1C1(C(F)F)CCN1CCF` (racemic) [S118]: 121 nM; for `O=C(Nc1ccc(OC(F)(F)F)cc1)Nc1cccnc1Oc1ccccc1C1(C(F)(F)F)CCN1Cc1ccccc1` (racemic) [S8]: 64 nM. For `Cc1ccc(NC(=O)Nc2ccccc2)c(Oc2ccc(F)cc2C2(C(F)(F)F)CCO2)n1` (racemic) [S42, 1-(2-(4-fluoro-2-(2-(trifluoromethyl)oxetan-2-yl)phenoxy)-6-methylpyridin-3-yl)-3-phenylurea], the IC50 was 324 nM.

With `O=C(Nc1ccc(C(F)F)cc1)Nc1cccnc1Oc1ccccc1C1(C(F)(F)F)CCO1` (racemic) [S39, 1-(4-(difluoromethyl)phenyl)-3-(2-(2-(2-(trifluoromethyl)oxetan-2-yl)phenoxy)pyridin-3-yl)urea], the IC50 was 259 nM. Same read-out and setting: with `CN1CCC1(c1ccccc1Oc1ncccc1NC(=O)Nc1ccc(OC(F)(F)F)cc1)C(F)(F)F` (racemic) [S89] the figure was 71 nM; with `CC(C)(C)CN1CCC1(c1ccccc1Oc1ncccc1NC(=O)Nc1ccc(OC(F)(F)F)cc1)C(F)(F)F` (racemic) [S117], 39 nM. Compound `O=C(Nc1ccc(OC(F)(F)F)c(F)c1)Nc1cccnc1Oc1ccccc1C1(C(F)(F)F)CCO1` (racemic) [S23, 1-(3-fluoro-4-(trifluoromethoxy)phenyl)-3-(2-(2-(2-(trifluoromethyl)oxetan-2-yl)phenoxy)pyridin-3-yl)urea] displayed an IC50 of 145 nM. This IC50 is about 3.7-fold higher than that of the compound before. Compound `O=C(Nc1ccc(OC(F)(F)F)cc1)Nc1cccnc1Oc1cccc(C2COC2)c1` (racemic) [S92] yielded a half-maximal inhibitory concentration (IC50) of 2790 nM. For the compound `O=C(Nc1ccc(OC(F)(F)F)cc1)Nc1cccnc1Oc1c(F)cccc1C1(C(F)(F)F)CCO1` (racemic) [S37], the half-inhibitory concentration (IC50) is 220 nM. In the case of `Cc1ccc(NC(=O)NC2CC3(C2)CC(F)(F)C3)c(Oc2ccc(F)cc2C2(C(F)(F)F)CCO2)n1` (racemic) [S86, 1-(6,6-difluorospiro[3.3]heptan-2-yl)-3-(2-(4-fluoro-2-(2-(trifluoromethyl)oxetan-2-yl)phenoxy)-6-methylpyridin-3-yl)urea], the IC50 worked out at 6050 nM. Same read-out and setting: with `CC1(c2ccccc2Oc2ncccc2NC(=O)Nc2ccc(OC(F)(F)F)cc2)CCC1` (racemic) [S95] the figure was 36 nM; with `O=C(Nc1ccc(Cl)cc1F)Nc1cccnc1Oc1ccc(F)cc1C1(C(F)(F)F)CCO1` (racemic) [S30, 1-(4-chloro-2-fluorophenyl)-3-(2-(4-fluoro-2-(2-(trifluoromethyl)oxetan-2-yl)phenoxy)pyridin-3-yl)urea], 166 nM.

Staying with this assay, now noted: single enantiomer; 5nM MRS2365; values rounded to nearest whole number.
In turn, `O=C(Nc1ccc(OC(F)(F)F)cc1)Nc1cccnc1Oc1ccccc1[C@@]1(C(F)(F)F)CCO1` [S110] came in with a half-maximal inhibitory concentration (IC50) of 68 nM. Compound `O=C(Nc1ccc(OC(F)(F)F)cc1F)Nc1cccnc1Oc1ccccc1[C@]1(C(F)(F)F)CCO1` [S107] came in with a 50% inhibitory concentration (IC50) of 113 nM. For `Cc1ccc(NC(=O)Nc2ccc(Cl)cc2F)c(Oc2ccccc2[C@@]2(C(F)(F)F)CCO2)n1` [S114], the IC50 came out at 41 nM. In turn, `Cc1ccc(NC(=O)Nc2ccc(OC(F)(F)F)cc2F)c(Oc2ccccc2[C@]2(C(F)(F)F)CCO2)n1` (racemic) [S104] came in with a half-inhibitory concentration (IC50) of 68 nM.

Values taken from patent publication EP4095134A1, “POLYCYCLIC COMPOUNDS FOR THE TREATMENT OF NEUROLOGICAL INDICATIONS” (UCL Business Ltd, priority 2021, dated 2022).
